Assay results: PMC5694373 (European journal of pharmaceutical sciences : official …, 2017)
pIC50: −log10 of the molar value. “And” between values parts separate entries of the source, which are not always exact repeats. Equal entries are not always repeated.

How the values were obtained:
[1] = biological target: neuraminidase of oseltamivir-resistant pandemic 2009 H1N1 A/Hong Kong/2369/2009 [H275Y] (HK/09-H275Y) (Influenza A virus, UniProt C6KQ69); assay: biochemical; assay type: biochemical
[2] = test system: oseltamivir-resistant HK/09-H275Y influenza; assay type: cell-based, influenza A virus H1N1
[3] = test system: mixture of 99% MX/09 and 1% oseltamivir-resistant HK/09-H275Y; assay type: cell-based, influenza A virus H1N1
[4] = biological target: neuraminidase of zanamivir-resistant seasonal 2008 H1N1 A/Brazil/1633/2008 [Q136K] (BZ/08-Q136K) (Influenza A virus, UniProt A4GBY0, Q136K); assay type: biochemical
[5] = test system: HK/09-H275Y subpopulation in 99% MX/09 + 1% HK/09-H275Y infection; assay type: cell-based, influenza A virus H1N1

CC(=O)N[C@H]1[C@H]([C@H](O)[C@H](O)CO)OC(C(=O)O)=C[C@@H]1N=C(N)N [Zanamivir, zanamivir]
pIC50 [1]: 11.14 | reduction of peak viral titers [2]: approximately 4 log10 PFU/ml | viral burden lower than the no-treatment control [3]: at least 2 log10

Oseltamivir carboxylate
IC50 values (95% Confidence Interval) [4]: 0.0028 (0.0005 – 0.0051) ng/ml | IC50 values (95% Confidence Interval) [1]: 15.30 (10.16 – 20.44) ng/ml | effect on viral burden relative to no-treatment control [3]: peak viral load equivalent to that of the no-treatment control by 72 h | HK/09-H275Y subpopulations [5]: 76% and 83%
